Experimental data from patent US7504537B2, “Hydroxamic acid derivative and MMP inhibitor containing the same as active ingredient” (Dainippon Sumitomo Pharma Co., Ltd., priority 2001, dated 2009).

Experiments:
Format in all cases: biochemical
MMP-13 = biological target: T1, MMP-13 (Homo sapiens, UniProt P45452); assay: Test 2 Test on MMP-13 inhibition activity (fluorogenic peptide substrate); details: activated MMP-13, 37° C.
T1 construct: a fragment of 767 bp encoding original 84 amino acids of complete MMP-13 and encoding 164 amino acids; made in house; host or cells: E. coli BL21 (DE3), pET11a
From the text: Test 2 Test on MMP-13 Inhibition Activity
In order to subcloning C-terminal truncated cDNA in which the cDNA encodes procollagenase-3 (proMMP-13) (J. Biol. Chem., 269(24), 16766-16773 (1994)), two synthesized oligonucleotide primer fragments: • (5′-[…]-3′ and 5′-[…]-3′: In former the sequence for specific NdeI site (under line) including first methionine is included, and in latter terminal codon and BamHI site (under lined) are included.) were used with human cartilage cell cDNA library for PCR. Due to these primers and Pfu DNA polymelase (STRATAGENE) for PCR, there was obtained a fragment of 767 bp encoding original 84 amino acids of complete MMP-13 and encoding 164 amino acids. The said fragment was cut out with digestion by NdeI and BamHI, and the fragment was annealed to NdeI site and BamHI site of pET11a (STRATAGENE). The recombinant plasmid was transformed into E. coli BL21 (DE3) and the bacteria were cultivated. The crude cell extract was prepared according to the method of Biochemistry. The said extract was dialyzed with 20 mM Tris-HCl (pH 7.2)/5 mM CaCl2/0.02% NaN3 solution, treated with SP-sepharose HP column (1.6×10 cm, Amasham-Pharmacia biotec), and the eluting was carried out by liner gradient from 0 to 0.3 m of sodium chloride solution (50 ml) (partially purified proMMP-13 was eluted at about 0.2M.) The eluted fraction was dialyzed with 20 mM Tris-HCl (pH 7.9)/5 mM CaCl2/200 mM (NH4)2SO4/0.02% NaN3 solution, treated with phenylsepharose HP column (1.6×5 cm, Amersham-Pharmacia biotec), and the eluting was carried out by liner gradient from 0.2M to 0M sulfuric acid ammonium solution (purified proMMP-13 was eluted at about 50 mM.). The eluted fraction was concentrated by YM-5 ultrafilter membrane, and activated by 4-aminophenyl mercuric acetate. Activated MMP-13 was treated with gel filtration chromatography in accordance with the method of Biochemistry to be separated from propeptide. Inhibiting Test Method
Enzyme activity test was carried out by the method of G. Knight (FEBS Lett., 296(3), 263-266 (1992)).
A mixture of activated MMP-13 (20 nM, 10 μl), buffer solution (70 μl, pH 7.5 solution containing 100 mM Tris-HCl solution, 10 mM calcium chloride solution, 100 mM sodium chloride solution and 0.05% Briji-35 solution), MOCAc-Pro-Leu-Gly-Leu-A2pr(DNP)-Ala-Arg-NH2 in 0.1% DMSO solution (100 μM, 10 μl) and a test compound in DMSO solution was incubated for 1.5 hours at 37° C. The mixture was put on a 96 well-plate (100 μl/wel), and the plate was incubated at 37° C. The enzyme activity in the presence of the compound was measured based on fluorescence intensity (λex 320 nm, λem 405 nm), and IC50 was calculated.

MMP-3 = biological target: T2, MMP-3 (Homo sapiens, UniProt P08254); assay: Test 1 Test on MMP-3 inhibiting activity (fluorogenic peptide substrate); details: activated MMP-3, 37° C.; read-out: MMP-3 inhibition activity value
T2 construct: C-terminal truncated cDNA in which the cDNA encodes human prostromelysin; made in house; host or cells: E. coli
T2 sequence (P08254 100-272 limits assumed): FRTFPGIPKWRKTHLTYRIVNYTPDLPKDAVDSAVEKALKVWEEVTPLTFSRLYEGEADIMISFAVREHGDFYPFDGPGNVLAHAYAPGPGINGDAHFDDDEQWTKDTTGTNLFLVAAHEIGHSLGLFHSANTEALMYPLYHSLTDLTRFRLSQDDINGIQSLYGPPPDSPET
Procedure: Test 1 Test on MMP-3 Inhibiting Activity
C-terminal truncated cDNA in which the cDNA encodes human prostromelysin, was subcloned (proMMP-3, cDNA sequence in Nature, 348, 699-704 (1990)), was expressed in E. coli and then, the expressed protein was purified in accordance with the method described in Biochemistry 30, 6476-6483 (1991). proMMP-3 activation was carried out by treating with 1 mM 4-aminophenyl mercuric acetate for 60 minutes at 37° C.
Enzyme activity test was conducted by the method of C. G. Knight (FEBS Lett., 296(3), 263-266 (1992)).
A mixture of activated MMP-3 (20 nM, 10 μl), buffer solution (70 μl, pH 7.5 solution containing 100 mM Tris-HCl solution, 10 mM calcium chloride solution, 100 mM sodium chloride solution and 0.05% Brij-35 solution), MOCAc-Pro-Leu-Gly-Leu-A2pr(DNP)-Ala-Arg-NH2 in 0.1% DMSO solution (100 μM, 10 μl) and a test compound in DMSO solution was incubated for 1.5 hours at 37° C. The mixture was put on a 96 well-plate (100 μl/well) and the plate was cultured at 37° C. The enzyme activity in the presence of the compound was measured based on fluorescence intensity (λex 320 nm, λem 405 nm), and IC50 was calculated.

MMP-14 (MT1-MMP) = biological target: T3, MMP-14 (MT1-MMP) (Homo sapiens, UniProt P50281); assay: Test 5 MMP-14 (MT1-MMP) inhibiting activity test; details: human recombinant MT1-MMP, 37° C.; read-out: MMP-14 inhibition activity value
T3 construct: purchased Biogenesis, supplied by Cosmobio (Nakarai Tesku)
Procedure: Test 5 MMP-14 (MTI-MMP) Inhibiting Activity Test
Human recombinant MTI-MMP used the product prepared by Biogenesis and supplied by Cosmobio (Nakarai Tesku).
An assay buffer solution (70 μl, pH 7.5 solution containing 0.1M Tris-HCl solution, 0.1M calcium chloride solution, 10 mM sodium chloride solution and 0.05% Brij-35 solution), 0.1 w/w % a compound in DMSO (10 μl), MMP substrate solution (MOCAc-Pro-Leu-Gly-Leu-A2pr(DNP)-Ala-Arg-NH2 (Peptide Lab.) diluted with the assay buffer solution (50 μM, 10 μl)) and human recombinant MT1-MMP (0.4 pg/10 μl/well) were well agitated under stirring. The enzyme activity of the mixture was measured based on fluorescence intensity (λex 320 nm/λem 405 nm) by a fluorescence reader. After the mixture was incubated at 37° C. for 0.5 hour, the fluorescence intensity (λex 320 nm/λem 405 nm) was measured every hour, and IC50 was calculated.
The inhibition value was calculated by withdrawing average value of blank well from fluorescence mean value of well in which MT1-MMP was added. As the blank was used the mixed solution prepared by adding assay buffer (10 μl) instead of MT1-MMP solution.

MMP-9 = MMP-9 (Homo sapiens, UniProt P14780); assay: Test 4 MMP-9 inhibiting activity test (biotin labeled gelatin); details: activated human MMP-9, biotin labeled gelatin; read-out: MMP-9 inhibition activity value
MMP-9, sequence (P14780 107-707 limits assumed): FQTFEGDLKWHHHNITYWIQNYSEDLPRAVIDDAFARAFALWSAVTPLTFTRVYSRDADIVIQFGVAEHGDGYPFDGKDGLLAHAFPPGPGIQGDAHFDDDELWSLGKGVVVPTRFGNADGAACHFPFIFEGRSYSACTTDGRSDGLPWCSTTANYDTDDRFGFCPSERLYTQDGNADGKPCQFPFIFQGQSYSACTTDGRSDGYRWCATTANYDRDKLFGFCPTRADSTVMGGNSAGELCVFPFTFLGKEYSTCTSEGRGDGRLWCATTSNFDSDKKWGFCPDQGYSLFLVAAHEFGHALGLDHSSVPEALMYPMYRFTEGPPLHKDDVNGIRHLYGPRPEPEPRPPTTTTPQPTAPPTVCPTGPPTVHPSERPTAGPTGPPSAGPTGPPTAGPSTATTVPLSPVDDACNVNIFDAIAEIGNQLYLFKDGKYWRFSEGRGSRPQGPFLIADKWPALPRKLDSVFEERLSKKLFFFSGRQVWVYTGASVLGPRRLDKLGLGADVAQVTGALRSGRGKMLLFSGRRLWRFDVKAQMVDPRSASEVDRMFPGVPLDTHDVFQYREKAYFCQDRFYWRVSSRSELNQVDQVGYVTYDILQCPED
Procedure: Test 4 MMP-9 Inhibiting Activity Test
A mixture of buffer solution (190 μl; pH 7.5 solution containing 50 mM Tris-HCl solution, 0.5 m sodium chloride solution and 5 mM calcium chloride solution), human MMP-9 (10 μl) and trypsin solution (20 μl; trypsin 3 mg in activated buffer (5 ml)) was incubated at 37° C. for 10 minutes. Thereto was added aprotinine solution (20 μl; aprotinine (3 mg) in buffer (5 ml)) and the mixture was incubated at 37° C. for 10 minutes, followed by addition of buffer (2 ml). The mixture was preserved under cooling with ice until use.
A mixture of DMSO solution (2 μl) containing definite concentration of the compound, biotin labeled gelatin (188 μl) and activated MMP-9 solution (10 μl) was put on a 96 well-assay plate (protein nonabsorbance type), well agitated, and incubated at 37° C. for 1 hour. This solution was transferred to Streptavidin-coating plate, and agitated at 15° C. to 30° C. for 30 minutes. And then the solution was washed with TTC buffer solution (200 μl) three times. Thereto was added Streptavidin-POD (200 μl) and the mixture was agitated at 15° C. to 25° C. for 60 minutes, followed by washing with TTC buffer (200 μl) three times. Then, ABTS solution (200 μl) was added thereto and after standing at room temperature for 40 minutes, furuorescence intensity was measured at 405 nm and IC50 was calculated.
In case of the above test, DMSO (2 μl) was used as a control instead of a sample solution. In the case of a blank, DMSO (2 μl) instead of the sample solution and the solution (10 μl) prepared in the same manner as preparation of […] but without adding 1.2 Uhuman MMP-9, instead of activated MMP-9 solution (10 μl), were used.

## CC(C)CN(CC(=O)NO)S(=O)(=O)c1ccc(Oc2ccc(S(C)(=O)=O)cc2)cc1 [Example 5, N′^1′-Hydroxy-N′^2′-isobutyl-N′^2′-({4-[4-(methylsulfonyl)phenoxy]phenyl}sulfonyl)glycinamide]
MMP-13
  IC50: 1.3 nM
MMP-3
  IC50: 15.4 nM
MMP-14 (MT1-MMP)
  IC50: 105 nM
MMP-9
  IC50: > 100 nM
